Experimental data reported in patent publication US20230226021A1, “ORAL FORMULATIONS OF PYRROLIDINE DERIVATIVES” (ObsEva S.A., priority 2013, published 2023).

Test: Qualitative solubility/crystallisation tests on 15 mg scale
Format: physicochemical
From the text: The E/Z ratio pre and post dry-flash remain in the range of 30/70 to 40/60. Furthermore, such an approach should be considered on the basis of the scale at which the operation has to be carried out. On a 20 L scale, this operation would not be a time saving approach.

Qualitative solubility, Dissolves in (DIPE, hot): 40 vol hot
Qualitative solubility, Dissolves in (IPA, hot): 4 vol hot
Qualitative solubility, Dissolves in (MIBK, hot): 4 vol hot
Qualitative solubility, Dissolves in (THF, cold): 4 vol cold
Qualitative solubility, Dissolves in / Comment (heptanes): insoluble in 20 vol
Qualitative solubility, Dissolves in (tBuOH, hot): 6 vol hot
Qualitative solubility, Dissolves in (toluene, cold): 2 vol cold
Compound: CO/N=C1/C[C@@H](CO)N(C(=O)c2ccc(-c3ccccc3C)cc2)C1 [(3Z,5S), (3Z,5S)-5-(hydroxymethyl)-1-[(2′-methyl-1,1′-biphenyl-4-yl)carbonyl]pyrrolidin-3-one-O-methyloxime]
